Earlier results in US20060211662A1, “Combination therapy for topical application in the treatment of age-related macular degeneration and ocular hypertension” (priority 2005, published 2006).

Legend:
[1] = for anabolic activity relative to standards: relative to standards (typically testosterone)
[2] = for androgenic (virilizing) activity relative to standards: relative to standards (typically testosterone)

SMILES | anabolic activity relative to standards [1] | androgenic (virilizing) activity relative to standards [2] | anabolic activity as percent of methyltestosterone ([1]; relative to methyltestosterone) | androgenic activity as percent of methyltestosterone ([2]; relative to methyltestosterone)
CCC(=O)O[C@H]1CC[C@H]2[C@@H]3CCC4=CC(=O)CC[C@@H]4[C@H]3CC[C@]12C [19-nortestosterone propionate] | unchanged | decreased |  | 
C[C@]12CCC(=O)C[C@@H]1CC[C@@H]1[C@@H]2CC[C@]2(C)[C@@H](O)CC[C@@H]12 [dihydrotestosterone] | enhanced | unchanged |  | 
C[C@]1(O)CC[C@H]2[C@@H]3CCC4=CC(=O)CC[C@]4(C)[C@@]3(F)[C@@H](O)C[C@@]21C [fluoxymesterone] | even larger increase | augmented |  | 
C[C@]12COC(=O)C[C@@H]1CC[C@@H]1[C@@H]2CC[C@@]2(C)[C@H]1CC[C@]2(C)O [oxandrolone, 17 alpha-methyl-17β-hydroxy-2-oxa-5 alpha-androstan-3-one] | increased | decreased | 322% | 24%
C[C@]12C/C(=C/O)C(=O)C[C@@H]1CC[C@@H]1[C@@H]2CC[C@@]2(C)[C@H]1CC[C@]2(C)O [oxymetholone] | enhanced | unchanged |  | 
C[C@]12Cc3c[nH]nc3C[C@@H]1CC[C@@H]1[C@@H]2CC[C@@]2(C)[C@H]1CC[C@]2(C)O [stanozolol] | increased | decreased |  | 
